Test results as given in patent US11286268B1, “EIF4E-inhibiting compounds and methods” (EFFECTOR THERAPEUTICS, INC., priority 2019, dated 2022).
Like-named read-outs stand apart in the source and are kept apart here.

Biological target: recombinant eIF4E (Homo sapiens (Human), UniProt P06730)
Assay: Fluorescence polarization competition assay for eIF4E binding potency
How it was run: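 FP readout; IC50 fit from 8-point, 3-fold series. 75 nM eIF4E + 20 nM ATTO-550-labelled m7GDP probe, Tris pH 7.5/NaCl/DTT/Tween buffer, 1% DMSO final. 30 min RT equilibration, light-protected.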

[1] = fluorescence polarization competition, 75 nM recombinant eIF4E, 20 nM EDA-m7GDP-ATTO-550, IC50 class, read-out: elF4E FP
[2] = inhibition of eIF4E/EDA-m7GDP-ATTO-550 binding by 50%, Table 4B calculated values, read-out: IC50
[3] = inhibition of eIF4E/EDA-m7GDP-ATTO-550 binding, calculated IC50 values, Table 4B, read-out: IC50

Sequence of recombinant eIF4E (P06730 whole entry): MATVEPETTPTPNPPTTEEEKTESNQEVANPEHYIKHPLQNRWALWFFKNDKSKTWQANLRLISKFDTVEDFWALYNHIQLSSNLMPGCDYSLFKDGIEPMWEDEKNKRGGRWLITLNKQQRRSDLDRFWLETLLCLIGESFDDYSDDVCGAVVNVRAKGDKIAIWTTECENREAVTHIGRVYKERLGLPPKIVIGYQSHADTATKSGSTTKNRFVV

| SMILES | IC50 [1] | IC50 [2] | IC50 [3] |
| --- | --- | --- | --- |
| Cc1nc2cc(C(F)(F)F)c(CC3CN(CC(F)F)C3)c(C#N)c2c(=O)n1CCOc1ccc(Cl)cc1-c1ccnc2c(C(=O)O)csc12 [compound 376] | < 50 nM | 12.7 nM | – |
| Cc1nc2c(C(C)C)nc(N3CCN(CCF)CC3)c(C#N)c2c(=O)n1CCOc1ccc(Cl)cc1-c1ccnc2c(C(=O)O)csc12 [compound 183] | 50 to 1000 nM | 50.2 nM | – |
| O=C(O)c1cccc(-c2cc(Cl)ccc2OCCn2cnc3cnc(-n4cccn4)cc3c2=O)c1 [compound 136] | 50 to 1000 nM | 199 nM | – |
| Cc1nc2cnc(N(C)C3CCN(CC(F)(F)C(F)F)CC3)c(C#N)c2c(=O)n1CC#Cc1ccc(Cl)cc1-c1ccnc2c(C(=O)O)csc12 [compound 1103] | < 50 nM | 14.8 nM | – |
| N#Cc1cc2c(=O)n(Cc3cc4cc(Cl)cc(-c5cccc(C(=O)O)c5)c4o3)cnc2cn1 [compound 25] | > 1000 nM | 12600 nM | – |
| COc1c(C(F)(F)F)cc2nc(C)n(CCOc3ccc(Cl)cc3-c3cc(C)nc4c(C(=O)O)csc34)c(=O)c2c1C#N [compound 1036] | < 50 nM | 3.51 nM | – |
| Cc1nc2cc(Cl)c(OC(F)(F)F)c(C#N)c2c(=O)n1CCOc1ccc(Cl)cc1-c1ccnc2c(C(=O)O)csc12 [compound 550] | 50 to 1000 nM | 87.8 nM | – |
| Cc1nc2cnc(N(C)[C@H]3CC[C@H](N(C)CC(F)F)CC3)c(C#N)c2c(=O)n1CC#Cc1ccc(Cl)cc1-c1ccnc2c(C(=O)O)csc12 [compound 1895] | – | – | 12.7 nM |
| Cc1cc(-c2cc(Cl)ccc2OCCn2c(C)nc3cc(C(F)(F)F)c(-c4cnccc4F)c(C#N)c3c2=O)c2scc(C(=O)O)c2n1 [compound 343] | < 50 nM | 41.8 nM | – |
| Cc1nc2cc(C(F)(F)F)c(Cl)c(C#N)c2c(=O)n1CCOc1ccc(Cl)cc1-c1ccnc2c(C(=O)NS(C)(=O)=O)csc12 [compound 519] | < 50 nM | 37.8 nM | – |
| CNc1cc2c(=O)n(CCOc3ccc(Cl)cc3-c3cccc(C(=O)O)c3)c(C)nc2cn1 [compound 2006] | – | – | 611 nM |
| Cc1cc(-c2c(C(F)F)cc3nc(C)n(CCOc4ccc(Cl)cc4-c4cc(C)nc5c(C(=O)O)csc45)c(=O)c3c2C#N)ccn1 [compound 1386] | – | – | 12.8 nM |
| Cc1nc2cncc(C#N)c2c(=O)n1CC#Cc1ccc(Cl)cc1-c1ccc(C(=O)O)c(C(=O)O)c1 [compound 149] | 50 to 1000 nM | 110 nM | – |
| Cc1cc(-c2cc(Cl)ccc2OCCn2c(C)nc3cnc(-c4ccccc4C)c(C#N)c3c2=O)c2scc(C(=O)O)c2n1 [compound 944] | < 50 nM | 46.2 nM | – |
| Cc1nc2cc(F)c(S(C)(=O)=O)c(C#N)c2c(=O)n1CCOc1ccc(Cl)cc1-c1ccnc2c(C(=O)O)csc12 [compound 279] | < 50 nM | 17.8 nM | – |
| Cc1cc(-c2cc(Cl)ccc2OCCn2c(C)nc3cc(C(F)(F)F)c(-c4ccccc4CO)nc3c2=O)c2scc(C(=O)O)c2n1 [compound 346] | < 50 nM | 18.1 nM | – |
| CCc1cc(-c2cc(Cl)ccc2OCCn2c(=O)[nH]c3cc(Cl)cc(C#N)c3c2=O)c2scc(C(=O)O)c2n1 [compound 1078] | 50 to 1000 nM | 347 nM | – |
| Cc1nc2cc(CN(C)CCF)c(OC(F)F)c(C#N)c2c(=O)n1CCOc1ccc(Cl)cc1-c1ccnc2c(C(=O)O)csc12 [compound 1278] | – | – | 10.6 nM |
| Cc1nc2cc(C(F)(F)F)c(N3CCN(C)CC3)c(C#N)c2c(=O)n1CCOc1ccc(Cl)cc1-c1ccnc2cc(Cl)sc12 [compound 1246] | 50 to 1000 nM | – | 106 nM |
| Cc1nc2cnc(N3CCC4(CC3)CN(CC(F)F)C4)c(C#N)c2c(=O)n1CC#Cc1ccc(Cl)cc1-c1ccnc2c(C(=O)NS(=O)(=O)C3COC3)csc12 [compound 1408] | – | – | 17.6 nM |
| CCc1ncc2nc(C)n(CCOc3ccc(Cl)cc3-c3cc(C)nc4c(C(=O)O)csc34)c(=O)c2c1C#N [compound 923] | < 50 nM | 3.71 nM | – |
| Cc1cc(-c2cc(Cl)ccc2OCCn2c(C)nc3cc(C(F)(F)F)c(-c4ccccc4)nc3c2=O)c2scc(C(=O)O)c2n1 [compound 467] | < 50 nM | – | – |
| Cc1cc(-c2cc(Cl)ccc2OCCn2c(C)nc3cnc(N4CCC(=O)C4)c(C#N)c3c2=O)c2scc(C(=O)O)c2n1 [compound 884] | < 50 nM | 5.85 nM | – |
| Cc1cc(-c2cc(Cl)ccc2OCCn2c(C)nc3c(F)cc(C(F)F)c(C#N)c3c2=O)c2scc(S(=O)(=O)O)c2n1 [compound 488] | < 50 nM | – | – |
| Cc1nc2cnc(N3CC4(CN(CCOC(F)(F)F)C4)C3)c(C#N)c2c(=O)n1CC#Cc1ccc(Cl)cc1-c1ccnc2c(C(=O)O)csc12 [compound 894] | < 50 nM | 21.6 nM | – |
| Cc1cc(-c2cc(Cl)ccc2OCCn2c(C)nc3cc(Cl)c(NC4CC4)c(C#N)c3c2=O)c2scc(C(=O)O)c2n1 [compound 958] | < 50 nM | 13.5 nM | – |

| SMILES | IC50 [1] | IC50 [2] | IC50 [3] |
| --- | --- | --- | --- |
| Cc1nc2ccc(S(=O)(=O)N3CCC3)c(C#N)c2c(=O)n1CCOc1ccc(Cl)cc1-c1ccnc2c(C(=O)O)csc12 [compound 248] | 50 to 1000 nM | 52.3 nM | – |
| Cc1cc(-c2cc(Cl)ccc2OCCn2c(C)nc3c(C)nc(-c4ccccc4C(F)(F)F)c(C#N)c3c2=O)c2scc(C(=O)O)c2n1 [compound 924] | < 50 nM | 14.3 nM | – |
| Cc1nc2cnc(N(C)C3CCN(CC(F)(F)F)CC3)c(C#N)c2c(=O)n1CC#Cc1ccc(Cl)cc1-c1ccnc2c(C(=O)NS(=O)(=O)CC(F)(F)F)csc12 [compound 1593] | – | – | 61.6 nM |
| Cc1nc2c(F)cc(C(F)F)c(C#N)c2c(=O)n1CCOc1ccc(Cl)cc1-c1ccnc2c(C(=O)O)csc12 [compound 1944] | – | – | 24.9 nM |
| Cc1cc(-c2cc(Cl)ccc2OCCn2c(C)nc3cc(C(F)(F)F)c(-c4ccncc4F)c(C#N)c3c2=O)c2scc(C(=O)O)c2n1 [compound 344] | < 50 nM | 32.1 nM | – |
| Cc1nc2cc(C(F)(F)F)cc(C#N)c2c(=O)n1CCOc1ccc(Cl)cc1-c1cccc2c1S(=O)(=O)C=C2C(=O)O [compound 327] | < 50 nM | 43.7 nM | – |
| O=C(O)c1cccc(-c2cc(Cl)ccc2OCCn2cnc3ccncc3c2=O)c1 [compound 13] | > 1000 nM | 1070 nM | – |
| Cc1cc(-c2cc(Cl)ccc2OCCn2c(C)nc3c(C)nc(-c4cnc(N)cc4F)c(C#N)c3c2=O)c2scc(C(=O)O)c2n1 [compound 874] | < 50 nM | 41.5 nM | – |
| Cc1nc2cncc(C#N)c2c(=O)n1CCOc1ccc(Cl)cc1-c1ccnc2c(C(=O)O)csc12 [compound 140] | 50 to 1000 nM | 50 nM | – |
| Cc1nc2c(C(F)(F)F)ncc(C#N)c2c(=O)n1CCOc1ccc(Cl)cc1-c1cccc(C(=O)O)c1 [compound 38] | 50 to 1000 nM | 55.5 nM | – |
| Cc1nc2cnc(N(C)C3CCN(C(C)C(F)F)CC3)c(C#N)c2c(=O)n1CCOc1ccc(Cl)cc1-c1ccnc2c(C(=O)O)csc12 (centres unmarked) [compound 1662] | – | – | 22.1 nM |
| Cc1nc2c(F)cc(CN(C)C)c(C#N)c2c(=O)n1CCOc1ccc(Cl)cc1-c1ccnc2c(C(=O)O)csc12 [compound 508] | < 50 nM | 15.2 nM | – |
| Cc1nc2cc(C(F)(F)F)c(N3CCN(CC(F)(F)F)CC3)c(C#N)c2c(=O)n1CCOc1ccc(Cl)cc1-c1ccnc2c(C(=O)O)csc12 [compound 640] | < 50 nM | 24 nM | – |
| Cc1cc(-c2cc(Cl)ccc2OCCn2c(C)nc3cc(C(F)(F)F)c(N4CCN(C)CC4)c(C#N)c3c2=O)c2scc(C(O)(O)C(F)(F)F)c2n1 [compound 1079] | – | 55.9 nM | – |
| Cc1nc2cnc(N(C)[C@@H]3CC[C@H](N(C)CC(F)F)C3)c(C#N)c2c(=O)n1CC#Cc1ccc(Cl)cc1-c1ccnc2c(C(=O)O)csc12 [compound 1897] | – | – | 13.1 nM |
| Cc1cc(-c2cc(Cl)ccc2OCCn2c(C)nc3cnc(N4CC(OC(F)F)C4)c(C#N)c3c2=O)c2scc(C(=O)O)c2n1 [compound 1041] | < 50 nM | 6.21 nM | – |
| N#Cc1cccc2ncn(CCOc3ccc(Cl)cc3-c3cccc(C(=O)O)c3)c(=O)c12 [compound 73] | 50 to 1000 nM | 83.2 nM | – |
| Cc1nc2cnc(N(C)C3C[C@H]4C[C@@H]3CN4CC(C)(F)F)c(C#N)c2c(=O)n1CCOc1ccc(Cl)cc1-c1ccnc2c(C(=O)O)csc12 (some centres unmarked) [compound 1688] | – | – | 12.7 nM |
| CCN(c1ncc2nc(C)n(CCOc3ccc(Cl)cc3-c3ccnc4c(C(=O)O)csc34)c(=O)c2c1C#N)C1CCN(CC(F)F)CC1 [compound 1433] | – | – | 27.4 nM |
| Cc1cc(-c2cc(Cl)ccc2OCCn2c(C)nc3cnc(Cl)c(C#N)c3c2=O)c2scc(C(=O)O)c2n1 [compound 792] | < 50 nM | 2.44 nM | – |
| Cc1cc(-c2cc(Cl)ccc2OCCn2c(C)nc3cc(C(F)(F)F)c(CCN(C)C)c(C#N)c3c2=O)c2sc(C)c(C(=O)O)c2n1 [compound 1200] | < 50 nM | – | 14.8 nM |
| Cc1nc2cc(C(F)(F)F)c(Cl)c(C#N)c2c(=O)n1CCOc1cc(F)c(Cl)cc1-c1ccnc2c(C(=O)O)csc12 [compound 505] | < 50 nM | 43.6 nM | – |
| Cc1nc2cc(C(F)(F)F)c(N3CC4(C3)CN(C3CC3)C4)c(C#N)c2c(=O)n1CCOc1ccc(Cl)cc1-c1ccnc2ccsc12 [compound 2015] | – | – | 51.1 nM |
| Cc1nc2cnc(N3CCC4(CC3)CCN4CC(F)F)c(C#N)c2c(=O)n1CCOc1ccc(Cl)cc1-c1ccnc2c(C(=O)O)csc12 [compound 1647] | – | – | 19.6 nM |
| Cc1cc(-c2cc(Cl)ccc2OCCn2c(C)nc3cc(C(F)(F)F)c(-c4ccc(F)c(C)n4)c(C#N)c3c2=O)c2scc(C(=O)O)c2n1 [compound 1909] | – | – | 29.2 nM |
| Cc1nc2cnc(N(C)C3CCN([C@H]4C[C@H](F)C4)CC3)c(C#N)c2c(=O)n1CC#Cc1ccc(Cl)cc1-c1ccnc2c(C(=O)NS(=O)(=O)C3COC3)csc12 [compound 1791] | – | – | 10.1 nM |
